Our source for the IC50 values is patent US10981911B2, “Imidazopyrrolopyridine as inhibitors of the JAK family of kinases” (Janssen Pharmaceutica NV, priority 2016, dated 2021).

pIC50: −log10 of the molar value.

What all share (format): biochemical
The target in one assay is JAK1-JH1JH2 (Homo sapiens (Human), UniProt P23458). In words: Enzymatic inhibition assay (RapidFire HTMS), JAK1. As to conditions: 12.5 μM ATP, 200 μM substrate; read-out: JAK1-JH2JH1 IC50. The essentials:
(§1)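 Quenched with 0.5% TFA plus internal-standard peptide; phosphorylated product quantified by RapidFire C4 SPE–ESI-MS, 11-point 1:3 or 1:4 dilutions in duplicate.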

The target in a further assay is JAK2-JH1JH2 (Homo sapiens (Human), UniProt O60674). In words: Enzymatic inhibition assay (RapidFire HTMS), JAK2. As to conditions: 30 μM ATP, 40 μM substrate. The essentials: as §1
Sequence of JAK2-JH1JH2 (O60674 532-1132): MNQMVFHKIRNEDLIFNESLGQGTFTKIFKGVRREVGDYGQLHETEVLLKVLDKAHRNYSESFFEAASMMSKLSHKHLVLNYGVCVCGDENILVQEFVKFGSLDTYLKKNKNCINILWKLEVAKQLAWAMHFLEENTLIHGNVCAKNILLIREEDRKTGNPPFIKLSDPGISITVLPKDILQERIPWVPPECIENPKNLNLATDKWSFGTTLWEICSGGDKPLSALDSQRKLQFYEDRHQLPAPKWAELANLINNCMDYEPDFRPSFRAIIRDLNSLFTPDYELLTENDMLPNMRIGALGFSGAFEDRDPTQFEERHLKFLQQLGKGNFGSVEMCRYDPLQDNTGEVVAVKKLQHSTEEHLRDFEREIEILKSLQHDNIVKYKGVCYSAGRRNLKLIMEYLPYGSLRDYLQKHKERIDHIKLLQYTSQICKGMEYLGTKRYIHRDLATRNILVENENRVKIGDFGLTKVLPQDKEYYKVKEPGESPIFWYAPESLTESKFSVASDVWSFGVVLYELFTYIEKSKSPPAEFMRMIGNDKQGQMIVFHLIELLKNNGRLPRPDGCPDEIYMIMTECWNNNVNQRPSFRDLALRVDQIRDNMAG
Another assay concerns the target JAK3-JH1JH2 (Homo sapiens (Human), UniProt P52333). In words: Enzymatic inhibition assay (RapidFire HTMS), JAK3. As to conditions: 150 μM ATP, 40 μM substrate. The essentials:
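JAK3 JH1JH2 reaction incubated 45 min at 25 °C, then quenched with 0.5% TFA containing 0.15 μM internal standard peptide. Phosphopeptide product measured by RapidFire C4 SPE–ESI MS (positive mode); inhibition from product decrease versus uninhibited enzyme, 11-point 1:3 or 1:4 dilutions in duplicate.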

The target in another assay is Tyk2-JH1JH2 (Homo sapiens (Human), UniProt P29597, C1142A/C936A). Briefly: Enzymatic inhibition assay (RapidFire HTMS), Tyk2. To be noted: 50 μM ATP, 200 μM substrate. The essentials: as §1
Sequence of Tyk2-JH1JH2 (P29597 580-1182 C936A/C1142A): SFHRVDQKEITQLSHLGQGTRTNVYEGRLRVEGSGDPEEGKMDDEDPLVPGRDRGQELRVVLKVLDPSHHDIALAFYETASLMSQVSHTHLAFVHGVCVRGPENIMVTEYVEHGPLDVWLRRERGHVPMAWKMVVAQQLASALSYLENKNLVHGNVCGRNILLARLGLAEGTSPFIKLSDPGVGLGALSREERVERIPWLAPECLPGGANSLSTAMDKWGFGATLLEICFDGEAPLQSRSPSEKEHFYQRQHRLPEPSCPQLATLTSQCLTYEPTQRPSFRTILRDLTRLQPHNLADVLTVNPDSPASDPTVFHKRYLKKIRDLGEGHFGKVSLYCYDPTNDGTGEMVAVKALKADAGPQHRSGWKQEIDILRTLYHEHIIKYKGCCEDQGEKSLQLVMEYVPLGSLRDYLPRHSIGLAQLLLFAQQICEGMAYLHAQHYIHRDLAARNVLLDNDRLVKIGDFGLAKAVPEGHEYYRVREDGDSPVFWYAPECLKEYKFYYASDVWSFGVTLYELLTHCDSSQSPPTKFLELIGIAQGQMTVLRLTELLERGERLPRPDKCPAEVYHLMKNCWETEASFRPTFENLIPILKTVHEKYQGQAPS

Sequence of JAK1-JH1JH2 (P23458 574-1154): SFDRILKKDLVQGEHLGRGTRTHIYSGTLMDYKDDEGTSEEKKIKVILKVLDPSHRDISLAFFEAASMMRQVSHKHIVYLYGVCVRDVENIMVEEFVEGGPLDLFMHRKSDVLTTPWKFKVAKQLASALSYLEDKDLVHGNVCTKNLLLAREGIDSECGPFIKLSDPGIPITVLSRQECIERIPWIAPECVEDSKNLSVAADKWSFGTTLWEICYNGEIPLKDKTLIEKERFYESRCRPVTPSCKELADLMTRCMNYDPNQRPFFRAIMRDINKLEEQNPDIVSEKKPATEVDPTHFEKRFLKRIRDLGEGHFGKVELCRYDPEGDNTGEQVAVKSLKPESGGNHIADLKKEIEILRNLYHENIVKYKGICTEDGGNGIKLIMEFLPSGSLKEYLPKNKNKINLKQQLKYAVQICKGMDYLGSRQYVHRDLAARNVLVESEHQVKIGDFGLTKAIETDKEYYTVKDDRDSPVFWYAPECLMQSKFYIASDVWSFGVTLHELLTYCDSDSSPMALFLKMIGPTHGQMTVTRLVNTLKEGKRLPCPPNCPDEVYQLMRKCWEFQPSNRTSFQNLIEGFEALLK
Sequence of JAK3-JH1JH2 (P52333 512-1124): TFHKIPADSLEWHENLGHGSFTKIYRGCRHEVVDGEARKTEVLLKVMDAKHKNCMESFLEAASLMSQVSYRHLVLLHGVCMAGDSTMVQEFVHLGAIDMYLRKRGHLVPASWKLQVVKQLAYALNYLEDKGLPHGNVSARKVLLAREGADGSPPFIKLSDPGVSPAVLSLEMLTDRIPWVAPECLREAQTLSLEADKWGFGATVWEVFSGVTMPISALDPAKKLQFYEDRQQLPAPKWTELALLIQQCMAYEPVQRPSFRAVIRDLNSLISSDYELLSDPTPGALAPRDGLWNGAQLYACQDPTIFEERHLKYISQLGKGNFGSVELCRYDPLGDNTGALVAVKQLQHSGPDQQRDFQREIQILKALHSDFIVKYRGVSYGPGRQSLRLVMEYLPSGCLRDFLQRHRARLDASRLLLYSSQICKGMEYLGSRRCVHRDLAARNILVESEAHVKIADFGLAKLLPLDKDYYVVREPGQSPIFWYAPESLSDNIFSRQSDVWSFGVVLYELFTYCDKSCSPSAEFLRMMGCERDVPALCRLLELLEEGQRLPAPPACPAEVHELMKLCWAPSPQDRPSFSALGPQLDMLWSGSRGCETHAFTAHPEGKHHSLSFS

Consider `N#CC[C@H]1CC[C@H](n2c(C(=O)NC3CCOCC3)nc3cnc4[nH]ccc4c32)CC1` [Ex. 178, 1-((1r,4r)-4-(Cyanomethyl)cyclohexyl)-N-(tetrahydro-2H-pyran-4-yl)-1,6-dihydroimidazo[4,5-d]pyrrolo[2,3-b]pyridine-2-carboxamide], for which the negative logarithm of the IC50 (pIC50) (usually the IC50 on a negative log10 scale, so that one unit is a factor of ten) was 8.51 at JAK1-JH1JH2, 7.22 on JAK2-JH1JH2, 5.88 at JAK3-JH1JH2 and 7.37 against Tyk2-JH1JH2.

Turning to `N#CC[C@H]1CC[C@H](n2c(C(=O)NCCO)nc3cnc4[nH]ccc4c32)CC1` [Ex. 114, 1-((1r,4r)-4-(Cyanomethyl)cyclohexyl)-N-(2-hydroxyethyl)-1,6-dihydroimidazo[4,5-d]pyrrolo[2,3-b]pyridine-2-carboxamide], the pIC50 on JAK1-JH1JH2 is 9.22; against JAK2-JH1JH2 it was 8.32; at JAK3-JH1JH2 it was 6.99; at Tyk2-JH1JH2 it was 7.90.

For the compound `C#Cc1ccc(C(=O)c2ccc(-c3nc4cnc5[nH]ccc5c4n3[C@H]3CC[C@H](CC#N)CC3)cc2)cc1` [Ex. 169, 2-((1r,4r)-4-(2-(4-(4-Ethynylbenzoyl)phenyl)imidazo[4,5-d]pyrrolo[2,3-b]pyridin-1(6H)-yl)cyclohexyl)acetonitrile], the pIC50 was 8.70 at JAK1-JH1JH2, 7.51 against JAK2-JH1JH2, 5.25 against JAK3-JH1JH2 and 6.98 on Tyk2-JH1JH2.

For `COCCNC(=O)OCc1nc2cnc3[nH]ccc3c2n1[C@H]1CC[C@H](CC#N)CC1` [Ex. 161, (1-((1r,4r)-4-(Cyanomethyl)cyclohexyl)-1,6-dihydroimidazo[4,5-d]pyrrolo[2,3-b]pyridin-2-yl)methyl (2-methoxyethyl)carbamate], the pIC50 is 8.80 at JAK1-JH1JH2, 7.70 on JAK2-JH1JH2, 6.59 at JAK3-JH1JH2 and 7.70 on Tyk2-JH1JH2.

As for `N#CC[C@H]1CC[C@H](n2c(CO/N=C(\N)C3CC3)nc3cnc4[nH]ccc4c32)CC1` [Ex. 151, (Z*)—N-((1-((1r,4r)-4-(Cyanomethyl)cyclohexyl)-1,6-dihydroimidazo[4,5-d]pyrrolo[2,3-b]pyridin-2-yl)methoxy)cyclopropanecarboximidamide], the pIC50 is 8.85 on JAK1-JH1JH2, 7.97 against JAK2-JH1JH2, 6.99 at JAK3-JH1JH2 and 7.43 on Tyk2-JH1JH2.

For the compound `C[Si](C)(C)CNC(=O)Cc1nc2cnc3[nH]ccc3c2n1[C@H]1CC[C@H](CC#N)CC1` [Ex. 99, 2-(1-((1r,4r)-4-(Cyanomethyl)cyclohexyl)-1,6-dihydroimidazo[4,5-d]pyrrolo[2,3-b]pyridin-2-yl)-N-((trimethylsilyl)methyl)acetamide], the pIC50 on JAK1-JH1JH2 was 9.30; against JAK2-JH1JH2, 7.51; at JAK3-JH1JH2, 6.56; at Tyk2-JH1JH2 it was 7.53.

As to `CC(C)c1noc(=O)n1Cc1nc2cnc3[nH]ccc3c2n1[C@H]1CC[C@H](CC#N)CC1` [Ex. 129, 2-((1r,4r)-4-(2-((3-Isopropyl-5-oxo-1,2,4-oxadiazol-4(5H)-yl)methyl)imidazo[4,5-d]pyrrolo[2,3-b]pyridin-1(6H)-yl)cyclohexyl)acetonitrile], the pIC50 was 9.10 on JAK1-JH1JH2, 6.82 against JAK2-JH1JH2, 5.57 against JAK3-JH1JH2 and 7.97 on Tyk2-JH1JH2.

Consider `N#CC[C@H]1CC[C@H](n2c(CN/C(=N\O)C3CC3)nc3cnc4[nH]ccc4c32)CC1` [Ex. 110, (EZ)—N-((1-((1r,4r)-4-(Cyanomethyl)cyclohexyl)-1,6-dihydroimidazo[4,5-d]pyrrolo[2,3-b]pyridin-2-yl)methyl)-N′-hydroxycyclopropanecarboximidamide], for which the negative logarithm of the IC50 (pIC50) on JAK1-JH1JH2 is 9.22; against JAK2-JH1JH2, 7.54; on JAK3-JH1JH2, 6.38; against Tyk2-JH1JH2, 7.76.

For the compound `N#CC[C@H]1CC[C@H](n2c(CC(=O)Nc3cccnc3)nc3cnc4[nH]ccc4c32)CC1` [Ex. 111, 2-(1-((1r,4r)-4-(Cyanomethyl)cyclohexyl)-1,6-dihydroimidazo[4,5-d]pyrrolo[2,3-b]pyridin-2-yl)-N-(pyridin-3-yl)acetamide], the pIC50 at JAK1-JH1JH2 was 9.22; at JAK2-JH1JH2 it was 8.40; against JAK3-JH1JH2, 7.17; against Tyk2-JH1JH2, 8.20.

For the compound `N#CC[C@H]1CC[C@H](n2c(COC(=O)NCC3CCCCC3)nc3cnc4[nH]ccc4c32)CC1` [Ex. 146, (1-((1r,4r)-4-(Cyanomethyl)cyclohexyl)-1,6-dihydroimidazo[4,5-d]pyrrolo[2,3-b]pyridin-2-yl)methyl (cyclohexylmethyl)carbamate], the negative-log IC50 (pIC50) is 8.96 at JAK1-JH1JH2, 7.74 against JAK2-JH1JH2, 6.50 on JAK3-JH1JH2 and 7.95 against Tyk2-JH1JH2.

In the case of `N#CCCNC(=O)c1nc2cnc3[nH]ccc3c2n1[C@H]1CC[C@H](CC#N)CC1` [Ex. 138, N-(2-Cyanoethyl)-1-((1r,4r)-4-(cyanomethyl)cyclohexyl)-1,6-dihydroimidazo[4,5-d]pyrrolo[2,3-b]pyridine-2-carboxamide], the negative-log IC50 (pIC50) is 9.05 on JAK1-JH1JH2, 7.72 on JAK2-JH1JH2, 6.71 on JAK3-JH1JH2 and 7.73 against Tyk2-JH1JH2.

Turning to `N#CC[C@H]1CC[C@H](n2c(CC(=O)NCC(O)c3ccccc3)nc3cnc4[nH]ccc4c32)CC1` (stereo partly shown) [Ex. 102, 2-(1-((1r,4r)-4-(Cyanomethyl)cyclohexyl)-1,6-dihydroimidazo[4,5-d]pyrrolo[2,3-b]pyridin-2-yl)-N-(2-hydroxy-2-phenylethyl)acetamide], the pIC50 on JAK1-JH1JH2 was 9.30; on JAK2-JH1JH2, 7.94; on JAK3-JH1JH2, 6.70; against Tyk2-JH1JH2, 8.13.

As to `CCOC(=O)Cn1cc(-c2nc3cnc4[nH]ccc4c3n2[C@H]2CC[C@H](CC#N)CC2)cn1` [Ex. 182, Ethyl 2-(4-(1-((1r,4r)-4-(cyanomethyl)cyclohexyl)-1,6-dihydroimidazo[4,5-d]pyrrolo[2,3-b]pyridin-2-yl)-1H-pyrazol-1-yl)acetate], the pIC50 on JAK1-JH1JH2 is 8.55; at JAK2-JH1JH2 it was 7.61; on JAK3-JH1JH2, 6.56; against Tyk2-JH1JH2, 7.28.

With `CC(C)(O)CNC(=O)Cc1nc2cnc3[nH]cc(F)c3c2n1[C@H]1CC[C@H](CC#N)CC1` [Ex. 132, 2-(1-((1r,4r)-4-(Cyanomethyl)cyclohexyl)-8-fluoro-1,6-dihydroimidazo[4,5-d]pyrrolo[2,3-b]pyridin-2-yl)-N-(2-hydroxy-2-methylpropyl)acetamide], the pIC50 was 9.10 at JAK1-JH1JH2, 7.86 at JAK2-JH1JH2, 7.21 on JAK3-JH1JH2 and 7.79 against Tyk2-JH1JH2.

In the case of `CC(C)NC(=O)c1nc2cnc3[nH]ccc3c2n1[C@H]1CC[C@H](CC#N)CC1` [Ex. 172, 1-((1r,4r)-4-(Cyanomethyl)cyclohexyl)-N-isopropyl-1,6-dihydroimidazo[4,5-d]pyrrolo[2,3-b]pyridine-2-carboxamide], the pIC50 on JAK1-JH1JH2 was 8.68; on JAK2-JH1JH2, 7.12; against JAK3-JH1JH2 it was 5.51; against Tyk2-JH1JH2, 7.27.

For `N#CC[C@H]1CC[C@H](n2c(CC(=O)Nc3ccccc3)nc3cnc4[nH]ccc4c32)CC1` [Ex. 20, 2-(1-((1r,4r)-4-(Cyanomethyl)cyclohexyl)-1,6-dihydroimidazo[4,5-d]pyrrolo[2,3-b]pyridin-2-yl)-N-phenylacetamide], the pIC50 is 10.00 on JAK1-JH1JH2, 8.92 at JAK2-JH1JH2, 7.69 against JAK3-JH1JH2 and 8.72 against Tyk2-JH1JH2.
